Data: patent US8247211B2, “Glycopeptide antibiotics” (American Cyanamid Company, priority 2001, dated 2012)
Converted amounts (≈) assume the structure as drawn.

Legend:
Test in all cases: In vitro antibacterial evaluation: minimum inhibitory concentration (MIC), broth dilution method
Assay type in all cases: cell-based
[1] = tested on: Staphylococcus sp.
Description: (§1) The minimum inhibitory concentration (MIC), the lowest concentration of the antibiotic which inhibits growth of the test organism, is determined by the broth dilution method using Muller-Hinton II […] (Baltimore Biological Laboratories) following the recommendations of the National Committee for Clinical Laboratory Standards [Methods for dilution antimicrobial susceptibility tests for bacteria that grow aerobically, approved standard M7-A2, National Committee for Clinical Laboratory Standards, Villanova, Pa].
(§2) An inoculum level of 5×10^5 CFU/mL, and a range of antibiotic concentrations (64-0.06 μg/mL) is used. […] The test organisms include a spectrum of Gram-positive bacteria comprised of Staphylococcus sp., Streptococcus sp. and Enterococcus sp. These organisms include recent clinical isolates that are resistant to methicillin, penicillin and/or vancomycin.

[2] = tested on: Enterococcus sp.; conditions: 18 hours at 35° C.
Description: as §1, §2

[3] = tested on: Escherichia coli; conditions: 18 hours at 35° C.
Description: as §1, §2

[4] = tested on: Streptococcus sp.; conditions: 18 hours at 35° C.
Description: as §1, §2

[5] = Enterococcus faecalis (ATCC 29212)
[6] = Enterococcus faecalis (GC 2242)
[7] = Enterococcus faecalis (GC 2691)
[8] = Enterococcus faecalis (GC 3059)
[9] = Enterococcus faecalis (GC 4552)
[10] = Enterococcus faecalis (GC 4553)
[11] = Enterococcus faecalis (GC 4554)
[12] = Enterococcus faecalis (GC 6189)
[13] = broth dilution, inoculum 5×10^5 CFU/mL
[14] = Streptococcus agalactiae (GC 4564)
[15] = Streptococcus pneumoniae (ATCC 6301)
[16] = Streptococcus pneumoniae (GC 1894)
[17] = Streptococcus pneumoniae (GC 4565)
[18] = Streptococcus pyogenes (GC 4563)

Structure (SMILES): COc1ccc(COCC2OC(OC3C(CO)OC(Oc4ccc(CC5NC(=O)C(C(C)c6ccccc6)NC(=O)CNC(=O)C(CO)NC(=O)C(C(O)C6CNC(=N)N6C6OC(CO)C(O)C(O)C6O)NC(=O)C(C(O)C6CNC(=N)N6)NC5=O)cc4)C(O)C3O)C(O)C(O)C2O)cc1OCc1ccccc1 (stereo not shown) [Example 239]
- MIC Coagulase Negative Staphylococcus (GC 4547) ([1]; Coagulase Negative Staphylococcus (GC 4547), 18 hours at 35° C.): 2 µg/mL (≈ 1.31 µM)
- MIC Coagulase Negative Staphylococcus (GC 4548) ([1]; Coagulase Negative Staphylococcus (GC 4548), 18 hours at 35° C.): 1 µg/mL (≈ 0.657 µM)
- MIC Coagulase Negative Staphylococcus (GC 4549) ([1]; Coagulase Negative Staphylococcus (GC 4549), 18 hours at 35° C.): 1 µg/mL (≈ 0.657 µM)
- MIC Coagulase Negative Staphylococcus (GC 4551) ([1]; Coagulase Negative Staphylococcus (GC 4551), 18 hours at 35° C.): 2 µg/mL (≈ 1.31 µM)
- MIC Coagulase Negative Staphylococcus (GC 6257) ([1]; Coagulase Negative Staphylococcus (GC 6257), 18 hours at 35° C.): 1 µg/mL (≈ 0.657 µM)
- MIC Staphylococcus aureus (ATCC 29213) ([1]; Staphylococcus aureus (ATCC 29213), 18 hours at 35° C.): 2 µg/mL (≈ 1.31 µM)
- MIC Staphylococcus aureus (GC 1131) ([1]; Staphylococcus aureus (GC 1131), 18 hours at 35° C.): 2 µg/mL (≈ 1.31 µM)
- MIC Staphylococcus aureus (GC 3051) ([1]; Staphylococcus aureus (GC 3051), 18 hours at 35° C.): 1 µg/mL (≈ 0.657 µM)
- MIC Staphylococcus aureus (GC 3053) ([1]; Staphylococcus aureus (GC 3053), 18 hours at 35° C.): 2 µg/mL (≈ 1.31 µM)
- MIC Staphylococcus aureus (GC 4541) ([1]; Staphylococcus aureus (GC 4541), 18 hours at 35° C.): 4 µg/mL (≈ 2.63 µM)
- MIC Staphylococcus aureus (GC 4542) ([1]; Staphylococcus aureus (GC 4542), 18 hours at 35° C.): 2 µg/mL (≈ 1.31 µM)
- MIC Staphylococcus aureus (GC 4544) ([1]; Staphylococcus aureus (GC 4544), 18 hours at 35° C.): 2 µg/mL (≈ 1.31 µM)
- MIC Staphylococcus aureus (GC 4545) ([1]; Staphylococcus aureus (GC 4545), 18 hours at 35° C.): 2 µg/mL (≈ 1.31 µM)
- MIC Staphylococcus aureus-SMITH (GC 4543) ([1]; Staphylococcus aureus-SMITH (GC 4543), 18 hours at 35° C.): 2 µg/mL (≈ 1.31 µM)
- MIC Staphylococcus haemolyticus (GC 4546) ([1]; Staphylococcus haemolyticus (GC 4546), 18 hours at 35° C.): 1 µg/mL (≈ 0.657 µM)
- MIC Enterococcus avium (GC 4558) ([2]; Enterococcus avium (GC 4558)): 4 µg/mL (≈ 2.63 µM)
- MIC Enterococcus faecalis (ATCC 29212) [2, 5]: 4 µg/mL (≈ 2.63 µM)
- MIC Enterococcus faecalis (GC 2242) [2, 6]: 4 µg/mL (≈ 2.63 µM)
- MIC Enterococcus faecalis (GC 2691) [2, 7]: 4 µg/mL (≈ 2.63 µM)
- MIC Enterococcus faecalis (GC 3059) [2, 8]: 4 µg/mL (≈ 2.63 µM)
- MIC Enterococcus faecalis (GC 4552) [2, 9]: 4 µg/mL (≈ 2.63 µM)
- MIC Enterococcus faecalis (GC 4553) [2, 10]: 4 µg/mL (≈ 2.63 µM)
- MIC Enterococcus faecalis (GC 4554) [2, 11]: 4 µg/mL (≈ 2.63 µM)
- MIC Enterococcus faecalis (GC 6189) [2, 12]: 4 µg/mL (≈ 2.63 µM)
- MIC Enterococcus faecium (GC 2243) ([2]; Enterococcus faecium (GC 2243)): 4 µg/mL (≈ 2.63 µM)
- MIC Enterococcus faecium (GC 4556) ([2]; Enterococcus faecium (GC 4556)): 4 µg/mL (≈ 2.63 µM)
- MIC Enterococcus faecium (GC 4557) ([2]; Enterococcus faecium (GC 4557)): 2 µg/mL (≈ 1.31 µM)
- MIC Enterococcus faecalis (GC 2242) [2, 13]: 4 µg/mL (≈ 2.63 µM)
- MIC Enterococcus faecalis (GC 2691) [2, 13]: 4 µg/mL (≈ 2.63 µM)
- MIC Enterococcus faecalis (GC 3059) [2, 13]: 4 µg/mL (≈ 2.63 µM)
- MIC Escherichia coli (ATCC 25922) [3]: >64 µg/mL
- MIC Escherichia coli (GC 4559) [3]: >64 µg/mL
- MIC Escherichia coli (GC 4560) [3]: 1 µg/mL (≈ 0.657 µM)
- MIC Streptococcus agalactiae (GC 4564) [4, 14]: 0.25 µg/mL (≈ 0.164 µM)
- MIC Streptococcus pneumoniae (ATCC 6301) [4, 15]: <0.06 µg/mL
- MIC Streptococcus pneumoniae (GC 1894) [4, 16]: <0.06 µg/mL
- MIC Streptococcus pneumoniae (GC 4565) [4, 17]: <0.06 µg/mL
- MIC Streptococcus pyogenes (GC 4563) [4, 18]: 0.25 µg/mL (≈ 0.164 µM)
- MIC Streptococcus agalactiae (GC 4564) [4, 13]: 0.25 µg/mL (≈ 0.164 µM)
- MIC Streptococcus pneumoniae (ATCC 6301) [4, 13]: <0.06 µg/mL
- MIC Streptococcus pneumoniae (GC 1894) [4, 13]: <0.06 µg/mL
- MIC Streptococcus pneumoniae (GC 4565) [4, 13]: <0.06 µg/mL
- MIC Streptococcus pyogenes (GC 4563) [4, 13]: 0.25 µg/mL (≈ 0.164 µM)

Structure (SMILES): CC(c1ccccc1)C1NC(=O)CNC(=O)C(CO)NC(=O)C(C(O)C2CNC(=N)N2C2OC(CO)C(O)C(O)C2O)NC(=O)C(C(O)C2CNC(=N)N2)NC(=O)C(Cc2ccc(OC3OC(CO)C(OC4OC5COC6(OC5C(O)C4O)C(C)CCCC6C)C(O)C3O)cc2)NC1=O (stereo not drawn) [Example 206, Cyclo[glycyl-β-methylphenylalanyl-O-[4-O-[4,6-O-(2,6-dimethylcyclohexylidene)hexopyranosyl]hexopyranosyl]tyrosyl-3-(2-iminoimidazolidin-4-yl)seryl-3-(3-hexopyranosyl-2-iminoimidazolidin-4-yl)serylseryl]]
- MIC Staphylococcus aureus (ATCC 29213) ([1]; strain ATCC 29213): 1 µg/mL (≈ 0.713 µM)
- MIC Staphylococcus aureus (GC 1131) ([1]; strain GC 1131): 1 µg/mL (≈ 0.713 µM)
- MIC Staphylococcus aureus (GC 3051) ([1]; strain GC 3051): 1 µg/mL (≈ 0.713 µM)
- MIC Staphylococcus aureus (GC 3053) ([1]; strain GC 3053): 1 µg/mL (≈ 0.713 µM)
- MIC Staphylococcus aureus (GC 4541) ([1]; strain GC 4541): 1 µg/mL (≈ 0.713 µM)
- MIC Staphylococcus aureus (GC 4542) ([1]; strain GC 4542): 1 µg/mL (≈ 0.713 µM)
- MIC Staphylococcus aureus-SMITH (GC 4543) ([1]; strain GC 4543): 1 µg/mL (≈ 0.713 µM)
- MIC Staphylococcus aureus (GC 4544) ([1]; strain GC 4544): 1 µg/mL (≈ 0.713 µM)
- MIC Staphylococcus aureus (GC 4545) ([1]; strain GC 4545): 1 µg/mL (≈ 0.713 µM)
- MIC Staphylococcus haemolyticus (GC 4546) ([1]; strain GC 4546): 0.5 µg/mL (≈ 0.356 µM)
- MIC Coagulase Negative Staphylococcus (GC 4547) ([1]; strain GC 4547): 1 µg/mL (≈ 0.713 µM)
- MIC Coagulase Negative Staphylococcus (GC 4548) ([1]; strain GC 4548): 0.5 µg/mL (≈ 0.356 µM)
- MIC Coagulase Negative Staphylococcus (GC 4549) ([1]; strain GC 4549): 0.5 µg/mL (≈ 0.356 µM)
- MIC Coagulase Negative Staphylococcus (GC 4551) ([1]; strain GC 4551): 1 µg/mL (≈ 0.713 µM)
- MIC Enterococcus avium (GC 4558) ([2]; Enterococcus avium (GC 4558)): 2 µg/mL (≈ 1.43 µM)
- MIC Enterococcus faecalis (ATCC 29212) [2, 5]: 1 µg/mL (≈ 0.713 µM)
- MIC Enterococcus faecalis (GC 2242) [2, 6]: 2 µg/mL (≈ 1.43 µM)
- MIC Enterococcus faecalis (GC 2691) [2, 7]: 2 µg/mL (≈ 1.43 µM)
- MIC Enterococcus faecalis (GC 3059) [2, 8]: 1 µg/mL (≈ 0.713 µM)
- MIC Enterococcus faecalis (GC 4552) [2, 9]: 2 µg/mL (≈ 1.43 µM)
- MIC Enterococcus faecalis (GC 4553) [2, 10]: 2 µg/mL (≈ 1.43 µM)
- MIC Enterococcus faecalis (GC 4554) [2, 11]: 2 µg/mL (≈ 1.43 µM)
- MIC Enterococcus faecalis (GC 6189) [2, 12]: 1 µg/mL (≈ 0.713 µM)
- MIC Enterococcus faecium (GC 2243) ([2]; Enterococcus faecium (GC 2243)): 2 µg/mL (≈ 1.43 µM)
- MIC Enterococcus faecium (GC 4556) ([2]; Enterococcus faecium (GC 4556)): 1 µg/mL (≈ 0.713 µM)
- MIC Enterococcus faecium (GC 4557) ([2]; Enterococcus faecium (GC 4557)): 2 µg/mL (≈ 1.43 µM)
- MIC Enterococcus avium (GC 4558) [2, 13]: 2 µg/mL (≈ 1.43 µM)
- MIC Enterococcus faecalis (ATCC 29212) [2, 13]: 1 µg/mL (≈ 0.713 µM)
- MIC Enterococcus faecalis (GC 2242) [2, 13]: 2 µg/mL (≈ 1.43 µM)
- MIC Enterococcus faecalis (GC 2691) [2, 13]: 2 µg/mL (≈ 1.43 µM)
- MIC Enterococcus faecalis (GC 3059) [2, 13]: 1 µg/mL (≈ 0.713 µM)
- MIC Enterococcus faecalis (GC 4552) [2, 13]: 2 µg/mL (≈ 1.43 µM)
- MIC Enterococcus faecalis (GC 4553) [2, 13]: 2 µg/mL (≈ 1.43 µM)
- MIC Enterococcus faecalis (GC 4554) [2, 13]: 2 µg/mL (≈ 1.43 µM)
- MIC Enterococcus faecalis (GC 6189) [2, 13]: 1 µg/mL (≈ 0.713 µM)
- MIC Enterococcus faecium (GC 2243) [2, 13]: 2 µg/mL (≈ 1.43 µM)
- MIC Enterococcus faecium (GC 4556) [2, 13]: 1 µg/mL (≈ 0.713 µM)
- MIC Enterococcus faecium (GC 4557) [2, 13]: 2 µg/mL (≈ 1.43 µM)
- MIC Escherichia coli (ATCC 25922) [3]: 32 µg/mL (≈ 22.8 µM)
- MIC Escherichia coli (GC 4559) [3]: 32 µg/mL (≈ 22.8 µM)
- MIC Escherichia coli (GC 4560) [3]: 1 µg/mL (≈ 0.713 µM)
- MIC Streptococcus agalactiae (GC 4564) [4, 14]: 0.25 µg/mL (≈ 0.178 µM)
- MIC Streptococcus pneumoniae (ATCC 6301) [4, 15]: <0.12 µg/mL
- MIC Streptococcus pneumoniae (GC 1894) [4, 16]: <0.12 µg/mL
- MIC Streptococcus pneumoniae (GC 4565) [4, 17]: <0.12 µg/mL
- MIC Streptococcus pyogenes (GC 4563) [4, 18]: 1 µg/mL (≈ 0.713 µM)
- MIC Streptococcus agalactiae (GC 4564) [4, 13]: 0.25 µg/mL (≈ 0.178 µM)
- MIC Streptococcus pneumoniae (ATCC 6301) [4, 13]: <0.12 µg/mL
- MIC Streptococcus pneumoniae (GC 1894) [4, 13]: <0.12 µg/mL
- MIC Streptococcus pneumoniae (GC 4565) [4, 13]: <0.12 µg/mL
- MIC Streptococcus pyogenes (GC 4563) [4, 13]: 1 µg/mL (≈ 0.713 µM)
